Experimental data published in US8541457B2, “Aminothiazole derivatives as human stearoyl-CoA desaturase inhibitors” (Xenon Pharmaceuticals Inc., priority 2005, dated 2013).

melting point | SMILES
> 300 °C | Cc1nc(NC(=O)Nc2ccc(F)cc2)sc1C(=O)NCc1ccccc1 [Example 4.1, 2-[3-(4-Fluorophenyl)ureido]-4-methylthiazole-5-carboxylic Acid Benzylamide]
216 to 217 °C | Cc1nc(NC(=O)c2ccccc2)sc1C(=O)NCc1cccc(F)c1 [Example 7.2, 2-Benzoylamino-4-methylthiazole-5-carboxylic Acid 3-Fluorobenzylamide]
195 to 196 °C | Cc1nc(NC(=O)c2cccc(C(F)(F)F)c2)sc1C(=O)NCc1ccccc1 [Example 2.22, 4-Methyl-2-(3-trifluoromethylbenzoylamino)thiazole-5-carboxylic Acid Benzylamide]
256 to 258 °C | Cc1nc(NC(=O)c2ccc(C#N)cc2)sc1C(=O)NCc1ccccc1 [Example 2.25, 2-(4-Cyanobenzoylamino)-4-methylthiazole-5-carboxylic Acid Benzylamide]
262 to 265 °C | Cc1nc(NC(=O)c2ccc(S(C)(=O)=O)cc2)sc1C(=O)NCc1ccccc1 [Example 2.38, 2-(4-Methanesulfonylbenzoylamino)-4-methylthiazole-5-carboxylic Acid Benzylamide]
228 to 231 °C | Cc1nc(NC(=O)c2ccccc2)sc1C(=O)n1ccnc1 [Example 10, N-(5-(1H-Imidazole-1-carbonyl)-4-methylthiazol-2-yl)benzamide]
241 to 243 °C | Cc1nc(NC(=O)C2CC2)sc1C(=O)NCc1ccccc1 [Example 2.2, 2-(Cyclopropanecarbonylamino)-4-methylthiazole-5-carboxylic Acid Benzylamide]
75 to 77 °C | COc1cccc(C(=O)Nc2nc(C)c(C(=O)NCc3ccccc3)s2)c1 [Example 2.34, 2-(3-Methoxybenzoylamino)-4-methylthiazole-5-carboxylic Acid Benzylamide]
140 to 141 °C | Cc1nc(NC(=O)c2ccccc2OC(F)(F)F)sc1C(=O)NCc1ccccc1 [Example 2.21, 4-Methyl-2-(2-trifluoromethoxybenzoylamino)thiazole-5-carboxylic Acid Benzylamide]
104 to 105 °C | Cc1nc(NC(=O)c2cc(Cl)cc(Cl)c2)sc1C(=O)NCc1ccccc1 [Example 2.24, 2-(3,5-Dichlorobenzoylamino)-4-methylthiazole-5-carboxylic Acid Benzylamide]
224 to 226 °C | Cc1nc(NC(=O)c2cccnc2)sc1C(=O)NCc1ccccc1 [Example 2.27, N-(5-Benzylcarbamoyl-4-methylthiazol-2-yl)nicotinamide]
203 to 204 °C | COc1ccc(C(=O)Nc2nc(C)c(C(=O)NCc3ccccc3)s2)cc1 [Example 2.33, 2-(4-Methoxybenzoylamino)-4-methylthiazole-5-carboxylic Acid Benzylamide]
